{
  "source": "patent US20250340591A1",
  "about": "“COMPOSITION FOR PREVENTING OR TREATING INFLAMMATORY BOWEL DISEASE CONTAINING NOVEL COMPOUND” (ANYGEN CO., LTD., priority 2021, published 2025)",
  "note": "Square brackets hold non-standard residues; d marks the D form. Peptide text beside a SMILES is read from it. * marks the point of attachment. His(Trt) = N[C@@H](Cc1cn(C(c2ccccc2)(c2ccccc2)c2ccccc2)cn1)C(=O)O; His(τ-CHPh2) = N[C@@H](Cc1cn(C(c2ccccc2)c2ccccc2)cn1)C(=O)O; Tyr(3-NO2) = N[C@@H](Cc1ccc(O)c([N+](=O)[O-])c1)C(=O)O; Biotin = O=C1N[C@H]2[C@H](CS[C@H]2CCCCC(=O)*)N1; His(τ-Bzl) = N[C@@H](Cc1cn(Cc2ccccc2)cn1)C(=O)O; Tyr(3-NH2) = Nc1cc(C[C@H](N)C(=O)O)ccc1O; dPhe(4-Br) = N[C@H](Cc1ccc(Br)cc1)C(=O)O; dPhe(4-Cl) = N[C@H](Cc1ccc(Cl)cc1)C(=O)O; dPhe(4-Me) = Cc1ccc(C[C@@H](N)C(=O)O)cc1; Phe(4-Me) = Cc1ccc(C[C@H](N)C(=O)O)cc1; Myristoyl = CCCCCCCCCCCCCC(=O)*; Octanoyl = CCCCCCCC(=O)*",
  "data": [
    {"biological_target": "T1, GPR39 (Homo sapiens, UniProt O43194)", "T1 sequence (O43194 1-453)": "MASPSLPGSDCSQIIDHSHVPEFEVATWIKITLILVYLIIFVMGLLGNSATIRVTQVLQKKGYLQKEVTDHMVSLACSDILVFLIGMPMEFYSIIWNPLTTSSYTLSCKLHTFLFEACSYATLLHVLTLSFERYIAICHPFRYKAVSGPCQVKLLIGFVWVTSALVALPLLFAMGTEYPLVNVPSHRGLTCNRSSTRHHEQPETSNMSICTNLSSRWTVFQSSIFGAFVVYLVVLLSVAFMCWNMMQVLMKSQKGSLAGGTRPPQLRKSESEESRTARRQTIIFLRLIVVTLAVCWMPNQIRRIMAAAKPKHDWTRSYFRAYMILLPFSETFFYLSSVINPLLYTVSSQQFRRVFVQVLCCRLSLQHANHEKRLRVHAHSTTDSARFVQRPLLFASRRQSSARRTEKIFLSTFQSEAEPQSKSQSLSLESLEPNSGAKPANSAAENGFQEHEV", "assay": "luciferase assay system (SRE luciferase reporter gene, CV-1 cells expressing GPR39)", "type": "cell-based", "design": "expressed in transfected cells; host or cells: CV-1 fibroblast cell line (Korea Cell Line Bank), adenoviral transduction at 50 MOI", "conditions": "not given", "units": {"ECmax (−fold induction over basal)": "fold induction over basal"}, "values": [
      {"smiles": "CCCCCCCC(=O)NCCCC[C@H](NC(=O)[C@H](Cc1cn(C(c2ccccc2)c2ccccc2)cn1)NC(=O)CCCC[C@@H]1SC[C@@H]2NC(=O)N[C@@H]21)C(=O)N[C@@H](Cc1ccc(C)cc1)C(=O)N[C@@H](Cc1ccc(O)cc1)C(=O)O", "note": "[HKFY-72, ((S)-2-((S)-2-((S)-3-(1-benzhydryl-1H-imidazol-4-yl)-2-(5-((3aS,4S,6aR)-2-oxohexahydro-1H-thieno[3,4-d]imidazol-4-yl)pentanamido)propanamido)-6-octanamidohexanamido)-3-(p-tolyl)propanoyl)-L-tyrosine] (Biotin-[His(τ-CHPh2)]K(Octanoyl)[Phe(4-Me)]Y-OH)", "ECmax (−fold induction over basal)": "10.4 ± 1.12"},
      {"smiles": "CCCCCCCC(=O)NCCCC[C@H](NC(=O)[C@@H](N)Cc1cn(C(c2ccccc2)c2ccccc2)cn1)C(=O)N[C@H](Cc1ccc(C)cc1)C(=O)N[C@@H](Cc1ccc(O)c(N)c1)C(=O)O", "note": "[HKFY-70, (S)-2-((R)-2-((S)-2-((S)-2-amino-3-(1-benzhydryl-1H-imidazol-4-yl)propanamido)-6-octanamidohexanamido)-3-(p-tolyl)propanamido)-3-(3-amino-4-hydroxyphenyl)propanoic acid] (H-[His(τ-CHPh2)]K(Octanoyl)[dPhe(4-Me)][Tyr(3-NH2)]-OH)", "ECmax (−fold induction over basal)": "10.1 ± 1.6"},
      {"smiles": "CCCCCCCC(=O)NCCCC[C@H](NC(=O)[C@@H](N)Cc1cn([C@H](c2ccccc2)c2ccc(Cl)cc2)cn1)C(=O)N[C@@H](Cc1ccccc1)C(=O)N[C@@H](Cc1ccc(O)cc1)C(=O)O", "note": "[HKFY-21, N2-(Nt-((R)-(4-chlorophenyl)(phenyl)methyl)-L-histidyl)-N6-octanoyl-L-lysyl-L-phenylalanyl-L-tyrosine]", "ECmax (−fold induction over basal)": "18.3 ± 2.5"},
      {"smiles": "CCCCCCCC(=O)NCCCC[C@H](NC(=O)[C@@H](N)Cc1cn(S(=O)(=O)c2ccc(C)cc2)cn1)C(=O)N[C@H](Cc1ccc(C)cc1)C(=O)N[C@@H](Cc1ccc(O)cc1)C(=O)O", "note": "[HKFY-75, ((R)-2-((S)-2-((S)-2-amino-3-(1-tosyl-1H-imidazol-4-yl)propanamido)-6-octanamidohexanamido)-3-(p-tolyl)propanoyl)-L-tyrosine]", "ECmax (−fold induction over basal)": "15.9 ± 4.12"},
      {"smiles": "CCCCCCCC(=O)NCCCC[C@H](NC(=O)[C@@H](N)Cc1cn(C(c2ccccc2)c2ccccc2)cn1)C(=O)N[C@H](Cc1ccc(C)cc1)C(=O)N[C@@H](Cc1ccc(O)c([N+](=O)[O-])c1)C(=O)O", "note": "[HKFY-68, (S)-2-((R)-2-((S)-2-((S)-2-amino-3-(1-benzhydryl-1H-imidazol-4-yl)propanamido)-6-octanamidohexanamido)-3-(p-tolyl)propanamido)-3-(4-hydroxy-3-nitrophenyl)propanoic acid] (H-[His(τ-CHPh2)]K(Octanoyl)[dPhe(4-Me)][Tyr(3-NO2)]-OH)", "ECmax (−fold induction over basal)": "10.8 ± 1.41"},
      {"smiles": "CCCCCCCCCCCCCC(=O)NCCCC[C@H](NC(=O)[C@@H](N)Cc1cn(C(c2ccccc2)(c2ccccc2)c2ccccc2)cn1)C(=O)N[C@@H](Cc1ccccc1)C(=O)N[C@@H](Cc1ccc(O)cc1)C(=O)O", "note": "[HKFY-26, N6-tetradecanoyl-N2-(Nt-trityl-L-histidyl)-L-lysyl-L-phenylalanyl-L-tyrosine] (H-[His(Trt)]K(Myristoyl)FY-OH)", "ECmax (−fold induction over basal)": "19.82 ± 0.57"},
      {"smiles": "CCCCCCCC(=O)NCCCC[C@H](NC(=O)[C@@H](N)Cc1cn(C(c2ccccc2)(c2ccccc2)c2ccccc2)cn1)C(=O)N[C@@H](Cc1ccccc1)C(=O)N[C@@H](Cc1ccc(O)cc1)C(=O)O", "note": "[HKFY-1, N6-octanoyl-N2-(Nt-trityl-L-histidyl)-L-lysyl-L-phenylalanyl-L-tyrosine] (H-[His(Trt)]K(Octanoyl)FY-OH)", "ECmax (−fold induction over basal)": "20.51 ± 0.57"},
      {"smiles": "CCCCCCCC(=O)NCCCC[C@H](NC(=O)[C@H](Cc1cn(C(c2ccccc2)(c2ccccc2)c2ccccc2)cn1)NC(=O)[C@H](CO)NC(=O)CN)C(=O)N[C@@H](Cc1ccccc1)C(=O)N[C@@H](Cc1ccc(O)cc1)C(=O)O", "note": "[HKFY-37, N2-(Na-glycyl-L-seryl-Nt-trityl-L-histidyl)-N6-octanoyl-L-lysyl-L-phenylalanyl-L-tyrosine] (H-GS[His(Trt)]K(Octanoyl)FY-OH)", "ECmax (−fold induction over basal)": "16 ± 1.7"},
      {"smiles": "CCCCCCCC(=O)NCCCC[C@H](NC(=O)[C@@H](N)Cc1cn(C(c2ccccc2)(c2ccccc2)c2ccccc2)cn1)C(=O)N[C@@H](Cc1ccccc1)C(=O)N[C@@H](Cc1ccc(O)cc1)C(=O)N[C@@H](Cc1c[nH]cn1)C(=O)N[C@@H](CCC(N)=O)C(=O)N[C@@H](CCC(N)=O)C(=O)N[C@@H](C)C(=O)N[C@@H](CCCNC(=N)N)C(=O)N[C@@H](Cc1ccccc1)C(N)=O", "note": "[HKFY-42, (S)-2-((2S,5S,8S,11S)-2-((1H-imidazol-4-yl)methyl)-11-((S)-2-amino-3-(1-trityl-1H-imidazol-4-yl)propanamido)-8-benzyl-5-(4-hydroxybenzyl)-4,7,10,17-tetraoxo-3,6,9,16-tetraazatetracosanamido)-N1-((S)-5-amino-1-(((S)-1-(((S)-1-(((S)-1-amino-1-oxo-3-phenylpropan-2-yl)amino)-5-guanidino-1-oxopentan-2-yl)amino)-1-oxopropan-2-yl)amino)-1,5-dioxopentan-2-yl)pentanediamide] (H-[His(Trt)]K(Octanoyl)FYHQQARF-NH2)", "ECmax (−fold induction over basal)": "11.8 ± 0.02"},
      {"smiles": "CCCCCCCC(=O)NCCCC[C@H](NC(=O)[C@@H](N)Cc1cn(C(c2ccccc2)(c2ccccc2)c2ccccc2)cn1)C(=O)N[C@H](Cc1ccc(Br)cc1)C(=O)N[C@@H](Cc1ccc(O)cc1)C(=O)O", "note": "[HKFY-29, ((R)-2-((S)-2-((S)-2-amino-3-(1-trityl-1H-imidazol-4-yl)propanamido)-6-octanamidohexanamido)-3-(4-bromophenyl)propanoyl)-L-tyrosine] (H-[His(Trt)]K(Octanoyl)[dPhe(4-Br)]Y-OH)", "ECmax (−fold induction over basal)": "26.8 ± 1.87"},
      {"smiles": "CCCCCCCC(=O)NCCCC[C@H](NC(=O)[C@@H](N)CC1=CNCN1CCC1CCCCC1)C(=O)N[C@@H](Cc1ccccc1)C(=O)N[C@@H](Cc1ccc(O)cc1)C(=O)O", "note": "[HKFY-7, N2-((S)-2-amino-3-(3-(2-cyclohexylethyl)-2,3-dihydro-1H-imidazol-4-yl)propanoyl)-N6-octanoyl-L-lysyl-L-phenylalanyl-L-tyrosine]", "ECmax (−fold induction over basal)": "16 ± 2.2"},
      {"smiles": "CCCCCCCC(=O)NCCCC[C@H](NC(=O)[C@@H](N)Cc1cn(C(c2ccccc2)c2ccc(F)cc2F)cn1)C(=O)N[C@H](Cc1ccc(C)cc1)C(=O)N[C@@H](Cc1ccc(O)cc1)C(=O)O", "note": "(stereo partly drawn) [HKFY-32, ((2R)-2-((2S)-2-((2S)-2-amino-3-(1-((2,4-difluorophenyl)(phenyl)methyl)-1H-imidazol-4-yl)propanamido)-6-octanamidohexanamido)-3-(p-tolyl)propanoyl)-L-tyrosine]", "ECmax (−fold induction over basal)": "21.5 ± 2.7"},
      {"smiles": "CCCCCCCC(=O)NCCCC[C@H](NC(=O)[C@@H](N)Cc1cn(C(c2ccccc2)(c2ccccc2)c2ccc(C)cc2)cn1)C(=O)N[C@@H](Cc1ccccc1)C(=O)N[C@@H](Cc1ccc(O)cc1)C(=O)O", "note": "[HKFY-5, N2-(Nt-(diphenyl(p-tolyl)methyl)-L-histidyl)-N6-octanoyl-L-lysyl-L-phenylalanyl-L-tyrosine]", "ECmax (−fold induction over basal)": "16 ± 1.7"},
      {"smiles": "CCCCCCCC(=O)NCCCC[C@H](NC(=O)[C@@H](N)Cc1cn(Cc2ccccc2)cn1)C(=O)N[C@@H](Cc1ccccc1)C(=O)N[C@@H](Cc1ccc(O)cc1)C(=O)O", "note": "[HKFY-3, N2-(Nt-benzyl-L-histidyl)-N6-octanoyl-L-lysyl-L-phenylalanyl-L-tyrosine] (H-[His(τ-Bzl)]K(Octanoyl)FY-OH)", "ECmax (−fold induction over basal)": "9.2 ± 2.58"},
      {"smiles": "CCCCCCCC(=O)NCCCC[C@H](NC(=O)[C@@H](N)Cc1c[nH]c(-c2cccs2)n1)C(=O)N[C@H](Cc1ccc(C)cc1)C(=O)N[C@@H](Cc1ccc(O)cc1)C(=O)O", "note": "[HKFY-63, ((R)-2-((S)-2-((S)-2-amino-3-(2-(thiophen-2-yl)-1H-imidazol-4-yl)propanamido)-6-octanamidohexanamido)-3-(p-tolyl)propanoyl)-L-tyrosine]", "ECmax (−fold induction over basal)": "13.5 ± 1.8"},
      {"smiles": "CCCCCCCC(=O)NCCCC[C@@H](NC(=O)[C@@H](N)Cc1cn(C(c2ccccc2)(c2ccccc2)c2ccccc2)cn1)C(=O)N[C@H](Cc1ccc(Cl)cc1)C(=O)N[C@@H](Cc1ccc(O)cc1)C(=O)O", "note": "[HKFY-16, ((R)-2-((R)-2-((S)-2-amino-3-(1-trityl-1H-imidazol-4-yl)propanamido)-6-octanamidohexanamido)-3-(4-chlorophenyl)propanoyl)-L-tyrosine] (H-[His(Trt)][dK](Octanoyl)[dPhe(4-Cl)]Y-OH)", "ECmax (−fold induction over basal)": "27.9 ± 3.4"},
      {"smiles": "CCCCCCCC(=O)NCCCC[C@H](NC(=O)[C@@H](N)Cc1cn(CCc2ccccc2)cn1)C(=O)N[C@@H](Cc1ccccc1)C(=O)N[C@@H](Cc1ccc(O)cc1)C(=O)O", "note": "[HKFY-9, N6-octanoyl-N2-(Nt-phenethyl-L-histidyl)-L-lysyl-L-phenylalanyl-L-tyrosine]", "ECmax (−fold induction over basal)": "21 ± 2.52"},
      {"smiles": "CCCCCCCC(=O)NCCCC[C@H](NC(=O)[C@@H](N)Cc1cn(CC2c3ccccc3-c3ccccc32)cn1)C(=O)N[C@@H](Cc1ccccc1)C(=O)N[C@@H](Cc1ccc(O)cc1)C(=O)O", "note": "[HKFY-18]", "ECmax (−fold induction over basal)": "10 ± 1.48"}
    ]},
    {"biological_target": "T1, GPR39", "assay": "luciferase assay system (SRE luciferase reporter gene, CV-1 cells expressing GPR39)", "type": "cell-based", "design": "expressed in transfected cells; host or cells: CV-1 fibroblast cell line (Korea Cell Line Bank), adenoviral transduction at 50 MOI", "conditions": "comment on Table 3", "values": [
      {"smiles": "CCCCCCCC(=O)NCCCC[C@H](NC(=O)[C@@H](N)Cc1c[nH]c(-c2cccs2)n1)C(=O)N[C@H](Cc1ccc(C)cc1)C(=O)N[C@@H](Cc1ccc(O)cc1)C(=O)O", "note": "[HKFY-63, ((R)-2-((S)-2-((S)-2-amino-3-(2-(thiophen-2-yl)-1H-imidazol-4-yl)propanamido)-6-octanamidohexanamido)-3-(p-tolyl)propanoyl)-L-tyrosine]", "activity level for GPR39 (in words)": "higher activity level than other HKFY derivatives"}
    ]}
  ]
}
